From patent US20130143884A1, “4-[2-[ [5-METHYL-1-(2-NAPHTALENYL)-1H-PYRAZOL-3-YL]OXY]ETHYL] MORPHOLINE SALTS” (priority 2009, published 2013)
“And” between values parts separate entries of the source, which are not always exact repeats. Identical values can stand only once. Counter-ions that a name gives are not always drawn. Like-named read-outs stand apart in the source and are kept apart here.

Assays:
[1] = Thermodynamic solubility at pH 7.4; format: physicochemical
Method: General protocol for thermodynamic solubility at pH 7.4 and pH 2 is described below.
A) Thermodynamic Solubility at pH 7.4
Buffer phosphates pH 7.4 was prepared as follows: • A solution 25 mM of Na2HPO4.12H2O (for 1 l of water, weight 8.96 g) was prepared • A solution 25 mM de KH2PO4 (for 1 l of water weight 3.4 g) was prepared. • 812 ml of disodium phosphate solution+182 ml of potassium phosphate solution were mixed and pH checked according was 7.4.
Samples were equilibrated using: • Stirrer Thermomixer Control of Eppendorf a 25° C. y 1250 rpm • pHmeter with combined electrode of pH semimicro
2 mg in an HPLC vial (by duplicate) was weight and 1 ml of buffer was added. The vial was maintained at 25° C., in the stirrer Thermomixer Comfort., during 24 hours. Centrifugation at 4000 rpm followed during 15 min.
The resulting upper layer was collected with a glass pipette and transferred to the HPLC vials. Again centrifuged and the injector programmed at 2.7 mm high.
Sol.A: 2 mg in 5 ml methanol (400 ug/ml)
Sol.B: 1 ml Sol.A to 10 ml with methanol (40 ug/ml)
Sol.C: 5 ml Sol.B to 50 ml with methanol (4 ug/ml)
Sol.D: 4 ml Sol.C to 10 ml with methanol (1.6 ug/ml)
Sol.E: 5 ml Sol.D to 25 ml with methanol (0.32 ug/ml)
10 μl of all prepared solutions were injected, beginning with the more diluted standard. Blanks were also injected, for checking the absence of contamination.
The standard calibration curve was done (see FIG. 29). Consider Y=area y X=μg injected standard
10 μl of problem compound solution were injected, by duplicate and the average peak area (if quantifiable) interpolated in the standard curve (see Tables 9, 10 and 11 and example below).
Chromatographic Conditions • Column: XBridge C18 (or similar) 2.5 μm 4.6×50 mm • Temperature: 35° C. • Mobile phase: ACN/ammonium bicarbonate 10 mM. • Gradient: 0-3.5 min: from 15% ACN to 95% ACN • 3.5-5 min: 95% ACN • 5-6 min: 95 a 15% ACN • 6-8 min: 15% ACN • Flow: 1.5 ml/min • Detection: around the UV absorption maximum

[2] = Descriptive solubility in water and solvents; format: physicochemical
pKa = format: physicochemical
[3] = Pharmacokinetics in rats after single oral administration (plasma, HPLC with fluorescence detection); format: in vivo; settings: Wistar Hannover; rat plasma, single oral 25 mg/kg (expressed as compound 63)
Method: The pharmacokinetics of Example 1 in Wistar Hannover rats following a single oral administration of 25 mg/kg (expressed as compound 63) was tested. For this purpose, plasma samples were collected at different time points and analyzed using HPLC (High pressure liquid chromatography) method with fluorescence detection.
Two groups were used in this test. Group 1 received vehicle and Group 2 received Example 1 at 25 mg/kg with an administration volume of 10 mL/kg.
Blood samples were extracted from the retro-orbital zone at the following time points: pre-dose, 15 min, 30 min, 1 h, 1.5 h, 2 h, 3 h, 4 h, 5 h, 6 h, 8 h and 24 h. Blood was then transferred into heparin-containing plastic tubes. Plasma was obtained by centrifugation at approximately 3000 rpm for 10 min at 4° C. These plasma samples were labeled and frozen at a temperature of approximately −65° C. until analysis.
Samples were analyzed by a previously validated analytical method. Briefly, rat plasma samples were thawed at room temperature and centrifuged at 3000 rpm for 10 min at approximately 4° C. 300 μl of plasma samples were placed into vials and spiked with 30 μl of internal standard working solution. The vials were capped and mixed thoroughly. […]
The peaks corresponding to Example 1 and its internal standard were quantified by fluorescence detection at an excitation wavelength of 260 nm and an emission wavelength of 360 nm. […]
The peak plasma concentration values (Cmax) and the time to reach such concentration (tmax) were obtained directly from the experimental data. The elimination constant (kel) was calculated by linear regression of the last phase of the curve (log concentration vs. time). The elimination half-life (t1/2) was determined with the expression t1/2=0.693/kel. The area under the curve of plasma levels vs. time from zero to the last time determined (AUC0-t) was calculated be means of the trapezoidal method. The area under the curve of plasma levels vs time from zero to infinity (AUC0-∞) was calculated with the expression: AUC0-∞=AUC0-t+Clast/kel, where Clast is the plasma concentration at the last time measured.

[4] = Dissolution and absorption profile in vivo; settings: compared with its related base
sigma 1 (σ-1) site = sigma 1 (σ-1) site (Homo sapiens, UniProt Q99720); settings: cited from earlier work
Sequence of sigma 1 (σ-1) site (Q99720 whole entry): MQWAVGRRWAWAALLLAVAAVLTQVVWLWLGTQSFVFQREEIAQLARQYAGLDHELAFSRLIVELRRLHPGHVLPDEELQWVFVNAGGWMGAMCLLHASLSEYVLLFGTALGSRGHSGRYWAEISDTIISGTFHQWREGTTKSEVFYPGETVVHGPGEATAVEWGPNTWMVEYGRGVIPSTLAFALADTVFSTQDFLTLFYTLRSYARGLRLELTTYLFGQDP

[5] = treatment and prevention of chronic and acute pain, particularly neuropathic pain; reported in WO 2006/021462; cited from earlier work
[6] = Solubility of the salts in crystallization screening solvents; format: physicochemical; settings: initial screening solvents; for the maleate except ethyl acetate
Method: The product obtained in the initial preparation was solved in the minimum amount of crystallization solvent at its boiling temperature or at a maximum of 75° C. […] The mother liquors were cooled to room temperature and kept for 24 hours.
Initially, a crystallization screening of compound 63 with the ten counterions depicted in table 2 was performed, at a 40 mg scale, in the following ten solvents: acetone, ethyl acetate, chloroform, N,N-dimethylformamide, methanol, ethanol, isopropanol, 2-butanol, acetonitrile and tetrahydrofuran. The procedure started with the preparation of equimolar mixtures, from known concentration methanol dissolutions, of compound 63 and the different acid counterions. The resulting crude, after the methanol evaporation, was crystallized from the hot solvents formerly mentioned. Different crystallization strategies were used depending on the solubility of each acid and compound 63 mixture, and therefore the solids were obtained using different procedures. For some acids, the mixture was not soluble in the hot crystallization solvent, obtaining a slurry solid. In other cases, the solid crystallized during room temperature cooling of the solution, or after several days at 4° C. or at −18° C. Finally, in some crystallization attempts, the solid was obtained after slow evaporation of the solvent at room temperature. […]

sigma 2 (σ-2) site = sigma 2 (σ-2) site (Homo sapiens, UniProt Q5BJF2); settings: cited from earlier work
Sequence of sigma 2 (σ-2) site (Q5BJF2 whole entry): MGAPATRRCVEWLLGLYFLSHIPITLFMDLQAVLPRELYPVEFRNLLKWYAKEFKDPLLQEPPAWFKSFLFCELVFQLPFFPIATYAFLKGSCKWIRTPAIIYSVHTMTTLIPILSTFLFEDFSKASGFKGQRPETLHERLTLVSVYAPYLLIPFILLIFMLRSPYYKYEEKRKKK

Molecule: Cc1cc(OCCN2CCOCC2)nn1-c1ccc2ccccc2c1 [Example 1, 4-[2-[[5-methyl-1-(2-naphthalenyl)-1H-pyrazol-3-yl]oxy]ethyl]morpholine hydrochloride]
- solubility thermodynamic at 24 h ([1]; aqueous buffer, thermodynamic from solid, pH=7.4, phosphate buffer 50 mM, 25° C., 24 hours): 227 µg/mL
- Conc. (single injections) ([1]; pH 7.4, duplicate samples, duplicate injections, hydrochloride): 225.5 µg/mL and 229.0 µg/mL and 229.3 µg/mL and 225.3 µg/mL
- Conc. Mean ([1]; pH 7.4, mean of 4 injections): 227.262 µg/mL
- Solubility in 1N hydrochloric acid ([2]; 1N hydrochloric acid): freely soluble
- Solubility in 1N sodium hydroxide ([2]; 1N sodium hydroxide): practically insoluble
- Solubility in acetone ([2]; acetone): slightly soluble
- Solubility in dimethyl sulphoxide ([2]; dimethyl sulphoxide): freely soluble
- Solubility in ethanol ([2]; ethanol): sparingly soluble
- Solubility in ethyl acetate ([2]; ethyl acetate): practically insoluble
- Solubility in methanol ([2]; methanol): freely soluble
- Solubility in water ([2]; water): very soluble
- pKa (pKa; read-out: pKa): 6.73
- AUC(0-inf) [3]: 1250 ng·h/mL
- AUC(0-t) [3]: 1220 ng·h/mL
- Cmax [3]: 1.15 µg/mL
- Dissolution and absorption profile in vivo [4]: better dissolution and absorption profile in vivo than its related base

Molecule: Cc1cc(OCCN2CCOCC2)nn1-c1ccc2ccccc2c1 [compound 63, 4-[2-[[5-methyl-1-(2-naphthalenyl)-1H-pyrazol-3-yl]oxy]ethyl]morpholine]
- Sigma-1 receptor activity (sigma 1 (σ-1) site; reported in WO 2006/021462): highly selective sigma-1 (σ-1) receptor antagonist
- Analgesic activity [5]: strong analgesic activity
- pKa (pKa): 6.7

Molecule: CCS(=O)(=O)O.Cc1cc(OCCN2CCOCC2)nn1-c1ccc2ccccc2c1 [ethanesulfonate salt]
- Solubility in all the solvents assayed (first set of ten solvents) [6]: > 200000 µg/mL

Molecule: SKF 10047 [reference compound]
- Affinity for the sigma 1 (σ-1) site (sigma 1 (σ-1) site): nanomolar
- Affinity for the sigma 2 (σ-2) site (sigma 2 (σ-2) site): micromolar
